Patent publication US9676715B2, “Bis-indolic derivatives, a process for preparing the same and their uses as a drug” (UNIVERSITE JOSEPH FOURIER, priority 2011, dated 2017)
Converted amounts (≈) assume the structure as drawn.

How the values were obtained:
[1] = system: S. aureus ATCC 106414 (VISA); assay: MIC, microdilution method (9.1); assay type: cell-based, Staphylococcus aureus; settings: Staphylococcus aureus, read after 18 h, read-out: MIC
Description: (§1) The microdilution method recommended by the Clinical and Laboratory Standard Institute [M07-A8, Vol. 29, No. 2] was used. The activity of indolic compounds was tested against 29 bacterial strains belonging to 17 different species and 12 different genera (Staphylococcus, Streptococcus, Enterococcus, Listeria, Bacillus, Haemophilus, Escherichia, Klebsiella, Enterobacter, Serratia, Pseudomonas, and Acinetobacter). Bacterial inocula were prepared in Mueller Hinton broth (MH2, bioMérieux, Marcy L'Etoile, France), supplemented with 10% sheep blood for fastidious species (i.e., Streptococcus pneumoniae and Haemophilus influenzae). They were dispensed in 96 well microtiter plates (5×10^5 CFU/ml of final inoculum). Indolic compounds were added to the wells as to obtain two-fold serial concentrations (0.50-128 mg/L of final concentrations). Plates were incubated at 37° C. in ambient air, or at 37° C. in 5% CO2 enriched atmosphere for fastidious species. […] Drug-free cultures served as growth controls. Cultures receiving gentamicin, ciprofloxacin or cefotaxime served as positive controls.

S. aureus ATCC 25923 = assay: MIC, microdilution method (9.1); assay type: cell-based, Staphylococcus aureus; settings: Staphylococcus aureus, ATCC25923, read after 18 h, read-out: MIC
Description: as §1

S. aureus ATCC 29213 = assay: MIC, microdilution method (9.1); assay type: cell-based, Staphylococcus aureus; settings: Staphylococcus aureus, ATCC29213, read after 18 h, read-out: MIC
Description: as §1

[2] = system: S. aureus ATCC 33592 (MRSA); assay: MIC, microdilution method (9.1); assay type: cell-based, Staphylococcus aureus; settings: Staphylococcus aureus, read after 18 h, read-out: MIC
Description: as §1

S. aureus ATCC 6538 = assay: MIC, microdilution method (9.1); assay type: cell-based, Staphylococcus aureus; settings: Staphylococcus aureus, ATCC6538, read after 18 h, read-out: MIC
Description: as §1

S. aureus ATCC 9144 = assay: MIC, microdilution method (9.1); assay type: cell-based, Staphylococcus aureus; settings: Staphylococcus aureus, ATCC9144, read after 18 h, read-out: MIC
Description: as §1

S. aureus CIP 103428 = assay: MIC, microdilution method (9.1); assay type: cell-based, Staphylococcus aureus; settings: Staphylococcus aureus, CIP103428, read after 18 h, read-out: MIC
Description: as §1

[3] = system: S. aureus CIP 65.25 (MRSA); assay: MIC, microdilution method (9.1); assay type: cell-based, Staphylococcus aureus; settings: Staphylococcus aureus, read after 18 h, read-out: MIC
Description: as §1

S. aureus CIP 65.6 = assay: MIC, microdilution method (9.1); assay type: cell-based, Staphylococcus aureus; settings: Staphylococcus aureus, CIP65, read after 18 h, read-out: MIC
Description: as §1

[4] = system: S. epidermidis ATCC 12228; assay: MIC, microdilution method (9.1); assay type: cell-based, Staphylococcus epidermidis; settings: Staphylococcus epidermidis, ATCC12228, read after 18 h, read-out: MIC
Description: as §1

[5] = system: S. epidermidis CIP 103627; assay: MIC, microdilution method (9.1); assay type: cell-based, Staphylococcus epidermidis; settings: Staphylococcus epidermidis, CIP103627, read after 18 h, read-out: MIC
Description: as §1

S. epidermidis CIP 81.55 = assay: MIC, microdilution method (9.1); assay type: cell-based, Staphylococcus epidermidis; settings: Staphylococcus epidermidis, CIP81, read after 18 h, read-out: MIC
Description: as §1

S. pneumoniae ATCC 6303 = assay: MIC, microdilution method (9.1); assay type: cell-based, Streptococcus pneumoniae; settings: Streptococcus pneumoniae, ATCC6303, 10% sheep blood, 5% CO2, 18 h, read-out: MIC
Description: as §1

[6] = system: S. agalactiae (group B) ATCC 12400; assay: MIC, microdilution method (9.1); assay type: cell-based, Streptococcus agalactiae; settings: Streptococcus agalactiae, ATCC12400, 18 h, read-out: MIC
Description: as §1

[7] = system: S. pyogenes (group A) CIP 104226; assay: MIC, microdilution method (9.1); assay type: cell-based, Streptococcus pyogenes; settings: Streptococcus pyogenes, CIP104226, 18 h, read-out: MIC
Description: as §1

S. mitis CIP 103335 = assay: MIC, microdilution method (9.1); assay type: cell-based, Streptococcus mitis; settings: Streptococcus mitis, CIP103335, 18 h, read-out: MIC
Description: as §1

E. faecium CIP 54.32 = assay: MIC, microdilution method (9.1); assay type: cell-based, Enterococcus faecium; settings: Enterococcus faecium, CIP54, 18 h, read-out: MIC
Description: as §1

E. faecalis ATCC 29212 = assay: MIC, microdilution method (9.1); assay type: cell-based, Enterococcus faecalis; settings: Enterococcus faecalis, ATCC29212, 18 h, read-out: MIC
Description: as §1

[8] = system: Acinetobacter baumanii ATCC 19606; assay: MIC, microdilution method (9.1); assay type: cell-based; settings: Acinetobacter baumannii, ATCC19606, 18 h, read-out: MIC
Description: as §1

[9] = system: Bacillus subtilis CIP 5262; assay: MIC, microdilution method (9.1); assay type: cell-based; settings: CIP5262, 18 h, read-out: MIC
Description: as §1

[10] = system: Enterobacter cloacae ATCC13047; assay: MIC, microdilution method (9.1); assay type: cell-based; settings: 18 h
Description: as §1

[11] = system: Escherichia coli ATCC 25922; assay: MIC, microdilution method (9.1); assay type: cell-based; settings: ATCC25922, 18 h
Description: as §1

[12] = system: Haemophilus influenzae ATCC 49766; assay: MIC, microdilution method (9.1); assay type: cell-based; settings: ATCC49766; Haemophilus influenzae ATCC 49766; 10% sheep blood, 5% CO2; 18 h; read-out: MIC
Description: as §1

[13] = system: Klebsiella pneumoniae API ATCC 35657; assay: MIC, microdilution method (9.1); assay type: cell-based; settings: ATCC35657, 18 h, read-out: MIC
Description: as §1

[14] = system: Listeria innocua CIP 80.11; assay: MIC, microdilution method (9.1); assay type: cell-based; settings: CIP80, 18 h, read-out: MIC
Description: as §1

[15] = system: Pseudomonas aeruginosa CIP 5933; assay: MIC, microdilution method (9.1); assay type: cell-based; settings: CIP5933, 18 h, read-out: MIC
Description: as §1

S. pneumoniae ATCC 49619 = assay: MIC, microdilution method (9.1); assay type: cell-based; settings: Streptococcus pneumoniae, ATCC49619, 10% sheep blood, 5% CO2, 18 h
Description: as §1

[16] = system: Serratia marcescens CIP 103551; assay: MIC, microdilution method (9.1); assay type: cell-based; settings: CIP103551, 18 h
Description: as §1

S. aureus SA-1199B = assay: MIC, microdilution method (9.1); assay type: cell-based, Staphylococcus aureus; settings: Staphylococcus aureus, SA1199B, 18 h
Description: as §1

[17] = system: HCT116 (human colon tumor); assay: In vitro cytotoxicity; assay type: cell-based; settings: read-out: % of cellular growth inhibition; for inhibition at 10 µM: HCT-116, 10^−5 M; for inhibition at 1 µM: HCT-116, 10^−6 M
Description: (§2) In vitro cytotoxicity was assayed on three cell lines—KB (human mouth carcinoma), MCR5 (human lung fibroblast) and HCT116 (human colon tumor). Results are presented in table IV as % of cellular growth inhibition in presence of 10^−5 M and 10^−6 M of the tested bis-indolic derivatives.

[18] = system: KB (human mouth carcinoma); assay: In vitro cytotoxicity; assay type: cell-based; settings: read-out: % of cellular growth inhibition; for inhibition at 10 µM: 10^−5 M; for inhibition at 1 µM: 10^−6 M
Description: as §2

[19] = system: MRC5 (human lung fibroblast); assay: In vitro cytotoxicity; assay type: cell-based; settings: read-out: % of cellular growth inhibition; for inhibition at 10 µM: 10^−5 M; for inhibition at 1 µM: 10^−6 M
Description: as §2

Structure (SMILES)	MIC [1]	MIC (S. aureus ATCC 25923)	MIC (S. aureus ATCC 29213)	MIC [2]	MIC (S. aureus ATCC 6538)	MIC (S. aureus ATCC 9144)	MIC (S. aureus CIP 103428)	MIC [3]	MIC (S. aureus CIP 65.6)	MIC [4]	MIC [5]	MIC (S. epidermidis CIP 81.55)	MIC (S. pneumoniae ATCC 6303)	MIC [6]	MIC [7]	MIC (S. mitis CIP 103335)	MIC (E. faecium CIP 54.32)	MIC (E. faecalis ATCC 29212)	MIC [8]	MIC [9]	other results
O=C(NC(C(=O)NCCCCO)c1c[nH]c2ccc(Br)cc12)c1c[nH]c2ccc(Br)cc12 (stereo not shown) [Compound 15, 5-Bromo-N-(1-(5-bromo-1H-indol-3-yl)-2-((4-hydroxybutyl)amino)-2-oxoethyl)-1H-indole-3-carboxamide]	32 µg/mL (≈ 56.9 µM)	32 µg/mL (≈ 56.9 µM)	16 µg/mL (≈ 28.5 µM)	32 µg/mL (≈ 56.9 µM)	16 µg/mL (≈ 28.5 µM)	32 µg/mL (≈ 56.9 µM)	16 µg/mL (≈ 28.5 µM)	32 µg/mL (≈ 56.9 µM)	32 µg/mL (≈ 56.9 µM)	32 µg/mL (≈ 56.9 µM)	32 µg/mL (≈ 56.9 µM)	> 32 µg/mL	128 µg/mL (≈ 228 µM)	64 µg/mL (≈ 114 µM)	128 µg/mL (≈ 228 µM)	> 128 µg/mL	> 128 µg/mL	> 128 µg/mL	> 32 µg/mL	> 128 µg/mL	MIC [10]: > 32 µg/mL; MIC [11]: > 32 µg/mL; MIC [12]: > 128 µg/mL; MIC [13]: > 32 µg/mL; MIC [14]: > 128 µg/mL; MIC [15]: > 32 µg/mL; MIC (S. pneumoniae ATCC 49619): 128 µg/mL (≈ 228 µM); MIC [16]: > 32 µg/mL
CC(C)(C)OC(=O)NCC(NC(=O)c1c[nH]c2ccccc12)c1c[nH]c2cc(Br)ccc12 (stereo not shown) [Compound 3d, tert-Butyl (2-(6-bromo-1H-indol-3-yl)-2-(1H-indolyl-3-carboxamido)ethyl)carbamate]	8 µg/mL (≈ 16.1 µM)	8 µg/mL (≈ 16.1 µM)	8 µg/mL (≈ 16.1 µM)	8 µg/mL (≈ 16.1 µM)	8 µg/mL (≈ 16.1 µM)	8 µg/mL (≈ 16.1 µM)	8 µg/mL (≈ 16.1 µM)	8 µg/mL (≈ 16.1 µM)	8 µg/mL (≈ 16.1 µM)	16 µg/mL (≈ 32.2 µM)	16 µg/mL (≈ 32.2 µM)	16 µg/mL (≈ 32.2 µM)	64 µg/mL (≈ 129 µM)	64 µg/mL (≈ 129 µM)	64 µg/mL (≈ 129 µM)	64 µg/mL (≈ 129 µM)	64 µg/mL (≈ 129 µM)	> 128 µg/mL	> 128 µg/mL	64 µg/mL (≈ 129 µM)	MIC (S. aureus SA-1199B): 8 µg/mL (≈ 16.1 µM); MIC [10]: > 128 µg/mL; MIC [11]: > 128 µg/mL; MIC [12]: 64 µg/mL (≈ 129 µM); MIC [13]: > 128 µg/mL; MIC [14]: 32 µg/mL (≈ 64.3 µM); MIC [15]: > 128 µg/mL; MIC (S. pneumoniae ATCC 49619): 64 µg/mL (≈ 129 µM); MIC [16]: > 128 µg/mL; inhibition at 10 µM [17]: 73 ± 3%; inhibition at 1 µM [17]: 9%; inhibition at 10 µM [18]: 67 ± 3%; inhibition at 1 µM [18]: 0%; inhibition at 10 µM [19]: 73 ± 6%; inhibition at 1 µM [19]: 0%
CC(C)(C)OC(=O)NCC(NC(=O)c1c[nH]c2cc(Br)ccc12)c1c[nH]c2ccccc12 (stereo not shown) [Compound 3e, tert-Butyl (2-(1H-indol-3-yl)-2-(6-bromo-1H-indolyl-3-carboxamido)ethyl)carbamate]	8 µg/mL (≈ 16.1 µM)	16 µg/mL (≈ 32.2 µM)	8 µg/mL (≈ 16.1 µM)	32 µg/mL (≈ 64.3 µM)	8 µg/mL (≈ 16.1 µM)	8 µg/mL (≈ 16.1 µM)	8 µg/mL (≈ 16.1 µM)	8 µg/mL (≈ 16.1 µM)	16 µg/mL (≈ 32.2 µM)	8 µg/mL (≈ 16.1 µM)	128 µg/mL (≈ 257 µM)	8 µg/mL (≈ 16.1 µM)	–	–	–	–	–	–	–	–	MIC (S. aureus SA-1199B): 8 µg/mL (≈ 16.1 µM); inhibition at 10 µM [17]: 92 ± 1%; inhibition at 1 µM [17]: 2%; inhibition at 10 µM [18]: 99 ± 1%; inhibition at 1 µM [18]: 0%; inhibition at 10 µM [19]: 92 ± 6%; inhibition at 1 µM [19]: 0%
